Where a name gives a salt, the structure may show the parent alone.
How the values were obtained:
[1] = Residual water content by Karl Fischer titration (KFT); type: physicochemical
Text: Using conditions similar to those previously reported (Li et al., 2014, supra; […], et al., European journal of pharmaceutical sciences: official journal of the European Federation for Pharmaceutical Sciences. Jul. 16, 2013; 49(4):699-711; […], et al., International journal of nanomedicine. 2013; 8:275-293), the residual water content of all SD powders were quantified analytically by Karl Fischer titration (KFT) coulometrically using a TitroLine 7500 trace titrator (SI Analytics, Germany). Approximately 2-10 mg of powder was added to the titration cell containing Hydranal® Coulomat AD reagent. The residual water content was measured at the end of titration.

[2] = Laser diffraction particle size analysis; type: physicochemical; conditions: laser sizing, n = 3
Method: The laser diffraction particle size analysis was performed on raw Fas and all co-SD samples.

Residual Water content ([1]; n = 3): 2.97 ± 0.06 % w/w
Residual Water content ([1]; n = 3, listed as raw Fas): 2.97 % w/w
DV90 [2]: 7.42 ± 0.19 μm
Dv10 [2]: 3.67 ± 0.32 μm
Dv50 [2]: about 5 μm
Span Value [2]: 0.765 ± 0.15
Dv50 ([2]; listed as Raw FH): 4.96 ± 3.5 μm
Compound: O=S(=O)(c1cccc2cnccc12)N1CCCNCC1 [Raw Fas, Fasudil monohydrochloride hemihydrate salt]

From US11878023B2, “Compositions and methods for delivering pharmaceutical agents” (Arizona Board of Regents on Behalf of the University of …, priority 2017, dated 2024)
